Consider three molecules from paper PMC13372681, “A natural depsipeptide antibiotic binds the E-site of the bacterial ribosome” (Nature, 2026).

For experiment [1], the system named is E. coli C1508. The conditions noted are these: broth microdilution, MDR clinical isolate. In general terms: Dilution methods test growth across graded concentrations, often in twofold steps.
Experiment [2] deals with S. aureus ATCC 29213.
The subject of experiment [3] is M. bovis BCG Pasteur ATCC 35734. The conditions noted are these: Middlebrook 7H9 + 10% OADC + 0.05% Tween-80.
Experiment [4] has as its system M. tuberculosis H37Ra. The conditions noted are these: Middlebrook 7H9 + 10% OADC + 0.05% Tween-80.
Experiment [5] has as its system S. aureus USA 300. The conditions noted are these: USA 300.
Experiment [6] concerns E. coli ΔtolC ΔbamB. To be noted: broth microdilution.
Experiment [7] deals with Bacillus subtilis 168.
In experiment [8] the test system is E. coli ribosome. Nature of the experiment: Translocation assay. The class given is biochemical. The conditions noted are these: 250 μM negamycin; pre-translocation complex, toeprint read-out. As for the experimental part: In vitro translocation assay was carried out using the model mRNA MFK (Supplementary Table 9) as described. The mRNA was prepared by in vitro transcription of a PCR product amplified using the primers MF_F1, MF_F2, and MF_R (Supplementary Table 8). A 4.5 μl reaction containing 1 μM E. coli ribosomes, 0.5 μM mRNA, 1 μM tRNAi^Met, 0.5 μM radiolabelled NV1 primer (Supplementary Table 8), 2 U μl^−1 RiboLock RNase Inhibitor (Thermo), and antibiotic tested (50 μM MKM or 250 μM negamycin) in pure system buffer (PSB; 9 mM Mg(CH3COO)2, 5 mM K3PO4, 95 mM potassium glutamate, 5 mM NH4Cl, 0.5 mM CaCl2, 1 mM spermidine, 8 mM putrescine, 1 mM dithiothreitol, pH 7.3)[90] was incubated for 20 min at 37 °C. Then N-acetyl-Phe-N-tRNA^Phe (ref. [91]), in which amino acid is attached to the A3′ hydroxyl of the tRNA via an amide bond, was added to the final concentration of 2 μM followed by 10 min incubation at 37 °C. After addition of the E. coli EF-G and GTP to the final concentrations of 0.2 μM and 533 μM, respectively and incubation for 5 min at 30 °C, 1 µl of the mixture of AMV reverse transcriptase (Roche) and dNTPs (2.1 U/µl AMV reverse transcriptase and 2 mM dNTPs in PSB) was added, and the reactions were incubated for another 5 min at 30 °C. […]

Each structure is given as a SMILES string. ≈ marks a conversion by molar mass, not a printed value. Where two headings read alike, the source gives them in different places. Where a SMILES comes first, the peptide text is derived from it. Bridges are numbered along the chain shown (N, C = ends). [ ]: non-standard residue; d: D form. dOrn = NCCC[C@@H](N)C(=O)O Some results are limits rather than exact numbers.

For the molecule `C[C@@H](O)[C@@H]1NC(=O)[C@@H](CCCNC(=N)N)NC(=O)[C@@H](CCCNC(=N)N)NC(=O)[C@@H](CC(N)=O)NC(=O)[C@@H](NC(=O)[C@@H](Cc2ccccc2)NC(=O)[C@@H](CCCN)NC(=O)[C@@H](CCCNC(=N)N)NC(=O)[C@@H](N)CCCNC(=N)N)[C@@H](C)OC(=O)[C@H](Cc2c[nH]cn2)NC1=O` [MKM-E] (H-R[dR][dOrn][dF]T[dN][dR][dR]TH; ester 5-C; N-terminus assumed), the MIC (in general, the smallest concentration in the dilution series that meets the test's criterion for growth inhibition) in experiment [1] (Ca+ MHB Medium) is 8 µg/mL (≈ 5.97 µM); in experiment [1] (MOPS Minimal Medium), 1 µg/mL (≈ 0.747 µM); in experiment [1] (RPMI Medium), 1 µg/mL (≈ 0.747 µM); in experiment [2], 32 µg/mL (≈ 23.9 µM); in experiment [3] it was 1 µg/mL; in experiment [4] it was 1 µg/mL. The MIC was 16 µg/mL (≈ 11.9 µM) in experiment [5]; 2 µg/mL (≈ 1.49 µM) in experiment [6] (Ca+ MHB Medium); 0.5 µg/mL (≈ 0.373 µM) in experiment [6] (MOPS Minimal Medium); below 0.5 µg/mL in experiment [6] (RPMI Medium); 32 µg/mL (≈ 23.9 µM) in experiment [7].
Turning to `C[C@@H](O)[C@@H]1NC(=O)[C@@H](CCCNC(=N)N)NC(=O)[C@@H](CCCNC(=N)N)NC(=O)[C@@H](CC(N)=O)NC(=O)[C@@H](NC(=O)[C@@H](Cc2ccccc2)NC(=O)[C@@H](CCCNC(=N)N)NC(=O)[C@H](N)CCCNC(=N)N)[C@@H](C)OC(=O)[C@H](Cc2c[nH]cn2)NC1=O` [MKM-B] (H-[dR][dR][dF]T[dN][dR][dR]TH; ester 4-C), the MIC in experiment [1] (Ca+ MHB Medium) stood at 16 µg/mL (≈ 13.1 µM); in experiment [1] (MOPS Minimal Medium), 4 µg/mL (≈ 3.26 µM); in experiment [1] (RPMI Medium), 4 µg/mL (≈ 3.26 µM); in experiment [2], 32 µg/mL (≈ 26.1 µM); in experiment [3], 0.25 µg/mL; in experiment [4], 0.25 µg/mL. The minimum inhibitory concentration (MIC) in experiment [5] was 64 µg/mL (≈ 52.2 µM); in experiment [6] (Ca+ MHB Medium), 4 µg/mL (≈ 3.26 µM); in experiment [6] (MOPS Minimal Medium) it was 1 µg/mL (≈ 0.816 µM); in experiment [6] (RPMI Medium), 1 µg/mL (≈ 0.816 µM); in experiment [7] it was 32 µg/mL (≈ 26.1 µM).
`CN(CC(=O)O)NC(=O)C[C@H](N)C[C@@H](O)CN` [negamycin]: in experiment [8], the “inhibition of EF-G-dependent translocation” value is listed as “notably inhibited”.
